Assay results reported in patent US20040029938A1, “Medicaments” (priority 2000, published 2004).

Tested on: inducible nitric oxide synthase (INOS)
Experiment: LPS-induced INOS activity in J774 cells (DAF-2 fluorescence)
Format: cell-based, mouse
Conditions: pre-treatment 6 hours before and 24 hours after LPS (1 μg/ml), sub-nanomolar-nanomolar concentrations, FIG. 1
Description: In this assay system, lipopolysaccharide (LPS) was used to induce the expression of INOS in the mouse macrophage cell line, J774. […] This reduction in INOS activity correlated with a reduction in LPS-induced INOS mRNA expression.
Specifically, LPS-induced INOS activity was measured using the following assay conditions. J774 cells were seeded at a density of […] per well, in a black, clear-bottomed, 96 well plate, 24hours prior to use. The cell culture and the drug dilutions were carried out in complete media, which consisted of DMEM (Dulbecco's modification of Eagle's medium) containing foetal calf serum (10%), glutamine (2 mM), penicillin (100 μ/ml) and streptomycin (100 μg/ml). The J774 cells were pre-treated with the PPAR delta activators A and B, or vehicle, for 6 hours prior to, and for 24 hours subsequent to the addition of LPS (typically, a concentration of 1 μg/ml of LPS was used). Twenty-four hours after the addition of LPS, INOS activity was measured by the following method. […] After incubation at 37° C. for 3 hours, fluorescence from each well was measured at an excitation wavelength of 485 nm, and an emission wavelength of 530 nm. […]
LPS to induce INOS activity, in the presence and absence of PPAR delta activators, was then calculated. […]

Cc1cc(SCc2sc(-c3ccc(C(F)(F)F)c(F)c3)nc2C)ccc1OCC(=O)O [Compound B, 2-{2-methyl-4-[({4-methyl-2-[3-fluoro-4-(trifluoromethyl)phenyl]-1,3-thiazol-5-yl}methyl)sulfanyl]phenoxy}acetic acid]
inhibition of LPS-induced INOS activity: marked inhibition

Cc1cc(SCc2sc(-c3ccc(C(F)(F)F)cc3)nc2C)ccc1OCC(=O)O [Compound A, 2-{2-methyl-4-[({4-methyl-2-[4-(trifluoromethyl)phenyl]-1,3-thiazol-5-yl}methyl)sulfanyl]phenoxy}acetic acid]
inhibition of LPS-induced INOS activity: marked inhibition
